In the NIST ThermoML archive (doi:10.1021/je3013205):

Assay: xn = mol fraction of the nth substance listed
Settings: 101 kPa, Liquid, Vibrating tube method

OCCO [1,2-ethanediol] + NCCO
x1 = 1
Settings | mass density [kg/m3]
283.15 K | 1119.29
293.15 K | 1112.37
303.15 K | 1105.39
313.15 K | 1098.34
323.15 K | 1091.21
333.15 K | 1083.99
343.15 K | 1076.65

OCCO [1,2-ethanediol] + NCCOCCO
x1 = 1
Settings | mass density [kg/m3]
283.15 K | 1119.29
293.15 K | 1112.37
303.15 K | 1105.39
313.15 K | 1098.34
323.15 K | 1091.21
333.15 K | 1083.99
343.15 K | 1076.65

NCCOCCO [2-(2-aminoethoxy)ethanol] + CC(C)O
mass density [kg/m3]
Settings | x2 = 0 | x2 = 0.1002 | x2 = 0.2002 | x2 = 0.2999 | x2 = 0.3998 | x2 = 0.5001 | x2 = 0.6 | x2 = 0.7001 | x2 = 0.7999 | x2 = 0.9
283.15 K | 1063.9 | 1045.45 | 1024.83 | 1002.4 | 978.848 | 953.526 | 926.557 | 896.824 | 864.765 | 830.522
293.15 K | 1055.86 | 1037.41 | 1016.77 | 994.333 | 970.775 | 945.419 | 918.428 | 888.658 | 856.572 | 822.302
303.15 K | 1047.8 | 1029.32 | 1008.68 | 986.21 | 962.634 | 937.23 | 910.206 | 880.385 | 848.24 | 813.893
313.15 K | 1039.73 | 1021.21 | 1000.54 | 978.03 | 954.426 | 928.957 | 901.852 | 871.966 | 839.727 | 805.266
323.15 K | 1031.63 | 1013.07 | 992.342 | 969.77 | 946.127 | 920.579 | 893.378 | 863.375 | 831.011 | 796.354
333.15 K | 1023.46 | 1004.87 | 984.07 | 961.425 | 937.625 | 912.056 | 884.74 | 854.584 | 822.035 | 787.116
343.15 K | 1015.24 | 996.578 | 975.712 | 952.983 | 929.152 | 903.381 | 875.931 | 845.569 | 812.769 | 777.485

NCCOCCO [2-(2-aminoethoxy)ethanol] + CO
mass density [kg/m3]
Settings | x2 = 0 | x2 = 0.0999 | x2 = 0.1999 | x2 = 0.3001 | x2 = 0.4 | x2 = 0.5 | x2 = 0.6002 | x2 = 0.6999 | x2 = 0.8 | x2 = 0.9001
283.15 K | 1063.9 | 1055.89 | 1046 | 1034.44 | 1019.81 | 1002.23 | 980.617 | 953.558 | 916.98 | 868.243
293.15 K | 1055.86 | 1047.82 | 1037.87 | 1026.25 | 1011.56 | 993.898 | 972.194 | 945.032 | 908.292 | 859.298
303.15 K | 1047.8 | 1039.72 | 1029.71 | 1018.04 | 1003.27 | 985.526 | 963.722 | 936.443 | 899.545 | 850.287
313.15 K | 1039.73 | 1031.59 | 1021.52 | 1009.78 | 995.032 | 977.101 | 955.185 | 927.795 | 890.727 | 841.205
323.15 K | 1031.63 | 1023.41 | 1013.29 | 1001.48 | 986.54 | 968.618 | 946.586 | 919.061 | 881.797 | 832.01
333.15 K | 1023.46 | 1015.19 | 1004.99 | 993.102 | 978.075 | 960.052 | 937.892 | 910.228 | 872.764 | 822.672

NCCOCCO [2-(2-aminoethoxy)ethanol] + OCCO
mass density [kg/m3]
Settings | x2 = 0 | x2 = 0.0999 | x2 = 0.1998 | x2 = 0.2998 | x2 = 0.4001 | x2 = 0.4999 | x2 = 0.5999 | x2 = 0.7002 | x2 = 0.8 | x2 = 0.8998
283.15 K | 1063.9 | 1069.41 | 1074.47 | 1079.73 | 1084.82 | 1090.24 | 1095.7 | 1101.26 | 1107.46 | 1113.95
293.15 K | 1055.86 | 1061.43 | 1066.58 | 1071.94 | 1077.11 | 1082.67 | 1088.26 | 1093.92 | 1100.25 | 1106.86
303.15 K | 1047.8 | 1053.44 | 1058.65 | 1064.1 | 1069.38 | 1075.06 | 1080.79 | 1086.54 | 1093 | 1099.72
313.15 K | 1039.73 | 1045.41 | 1050.69 | 1056.23 | 1061.6 | 1067.42 | 1073.26 | 1079.13 | 1085.7 | 1092.53
323.15 K | 1031.63 | 1037.35 | 1042.69 | 1048.31 | 1053.78 | 1059.7 | 1065.66 | 1071.68 | 1078.32 | 1085.26
333.15 K | 1023.46 | 1029.22 | 1034.63 | 1040.32 | 1045.89 | 1051.9 | 1057.97 | 1064.11 | 1070.86 | 1077.9
343.15 K | 1015.24 | 1021.03 | 1026.5 | 1032.27 | 1037.92 | 1044.03 | 1050.2 | 1056.51 | 1063.3 | 1070.45
